Measurements published in patent publication US8088779B2, “Pyrazolo [1,5-alpha] pyrimidinyl derivatives useful as corticotropin-releasing factor (CRF) receptor antagonists” (SmithKline Beecham (Cork) Limited, priority 2005, dated 2012).

Columns and labels:
[1] = Slurry conversion of a mixture of the two polymorphs, solid examined by XRPD; assay type: physicochemical; details: 20.4 mg Form 1 + 21.3 mg Form 2 in saturated ethyl acetate/heptane=1/2 solution of Form 1, stirred at RT one day
Description: A saturated solution in ethyl acetate/heptane=½ of Form 1 of compound of Formula (I) (25 mg in 400 μL) was prepared.
20.4 mg of solid Form 1 of compound of Formula (I) were mixed with 21.3 mg of solid Form 2 of compound of Formula (I). That solid mixture was added to the above saturated solution. The slurry so obtained was stirred at RT one day long. The day after, the solid and liquid phase were separated by centrifugation, and the solid was simply left on air in order to dry and then examined by XPRD.

[2] = Thermodynamic relationship between Form 1 and Form 2 calculated from DSC melting data (method of Lian Yu); assay type: physicochemical; details: for transition temperature: Form 2 T=110.35° C., ΔH=83.43 J/g; for thermodynamic relationship between the polymorphs (monotropic or enantiotropic): based on DSC data
Description: For a polymorphic substance, a property of particular interest is the relative thermodynamic stability of the polymorphs. The questions to be answered are the following:
b) for an enantiotropic system, where (Tt) lies.
The thermodynamic relationship between Form 1 and Form 2 of compound of Formula (I) was calculated using the melting data of polymorphs measured by DSC, according to what disclosed in: Lian Yu, Journal of Pharmaceutical Science, Vol. 84, No. 8, August 1995.
Taking samples of Form 1 and Form 2 as pure forms 1 and 2 respectively, and using the melting point and the ΔH obtainable by DSC data, it was possible to calculate the thermodynamic relationship and the transition temperature.
The above calculation has been performed using DSC data for a different sample of polymorph Form 1 of compound of Formula (I), showing the Differential Scanning Calorimetry (DSC) thermogram of FIG. 7, obtained by the same method discussed above.

[3] = Form 1 sample of FIG. 6 (T=102.44° C., ΔH=71.18 J/g)
[4] = Form 1 sample of FIG. 7 (T=100.09° C., ΔH=75.46 J/g)

solid form after slurrying a mixture of Form 1 and Form 2 [1] | transition temperature [2, 3] [°C] | transition temperature [2, 4] [°C] | thermodynamic relationship between the polymorphs (monotropic or enantiotropic) [2] | SMILES
the solid was only constituted by Form 2 | 177 | 356 | monotropic relationship | CC[C@H](Nc1cc(C)nc2c(-c3ccc(OC)cc3C)c(C)nn12)c1nc(C)no1 [Form 2, [3-(4-methoxy-2-methyl-phenyl)-2,5-dimethyl-pyrazolo[1,5-a]pyrimidin-7-yl]-[(S)-1-(3-methyl-[1,2,4]oxadiazol-5-yl)-propyl]-amine]
– | 177 | 356 | monotropic relationship | CC[C@H](Nc1cc(C)nc2c(-c3ccc(OC)cc3C)c(C)nn12)c1nc(C)no1 [Form 1, [3-(4-Methoxy-2-methyl-phenyl)-2,5-dimethyl-pyrazolo[1,5-a]pyrimidin-7-yl]-[(S)-1-(3-methyl-[1,2,4]oxadiazol-5-yl)-propyl]-amine]
